According to ChEMBL document CHEMBL1201862, “PubChem BioAssay data set” (2004):
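The compound was tested at five concentrations on cells cultured in 96-well plates, with a 48-hour exposure period. GI50 is the concentration that inhibits growth by half.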 Activity calls are given as the source filed them. Cut-off read from the data, not from the text of the source: active = GI50 up to about 1.1 µM and inactive = higher.

Columns and labels:
Assay in all cases: NCI-60 cell line screen, 48 h
CCRF-CEM = tested on: CCRF-CEM
SN12C = tested on: SN12C
HOP-92 = tested on: HOP-92
SK-MEL-5 = tested on: SK-MEL-5
OVCAR-8 = tested on: OVCAR-8
ACHN = tested on: ACHN
SK-OV-3 = tested on: SK-OV-3
SF-295 = tested on: SF-295
IGROV-1 = tested on: IGROV-1
A549 = tested on: A549
TK-10 = tested on: TK-10
Malme-3M = tested on: Malme-3M
SNB-19 = tested on: SNB-19
SNB-75 = tested on: SNB-75
KM12 = tested on: KM12
SK-MEL-2 = tested on: SK-MEL-2
HCT-15 = tested on: HCT-15
DU-145 = tested on: DU-145
M14 = tested on: M14
SF-539 = tested on: SF-539
HT-29 = tested on: HT-29
NCI/ADR-RES = tested on: NCI/ADR-RES
786-0 = tested on: 786-0
MOLT-4 = tested on: MOLT-4
MDA-N = tested on: MDA-N
MCF7 = tested on: MCF7
NCI-H23 = tested on: NCI-H23
NCI-H460 = tested on: NCI-H460
PC-3 = tested on: PC-3
HCT-116 = tested on: HCT-116
UACC-257 = tested on: UACC-257
BT-549 = tested on: BT-549
OVCAR-5 = tested on: OVCAR-5
U-251 = tested on: U-251
SR = tested on: SR
RXF 393 = tested on: RXF 393
UACC-62 = tested on: UACC-62
EKVX = tested on: EKVX
NCI-H226 = tested on: NCI-H226
T47D = tested on: T47D
Hs-578T = tested on: Hs-578T
COLO 205 = tested on: COLO 205
UO-31 = tested on: UO-31
MDA-MB-435 = tested on: MDA-MB-435
RPMI-8226 = tested on: RPMI-8226
K562 = tested on: K562
CAKI-1 = tested on: CAKI-1
SW-620 = tested on: SW-620
SF-268 = tested on: SF-268
MDA-MB-231 = tested on: MDA-MB-231
NCI-H522 = tested on: NCI-H522
OVCAR-4 = tested on: OVCAR-4
A498 = tested on: A498
SK-MEL-28 = tested on: SK-MEL-28
HL-60 = tested on: HL-60
HCC 2998 = tested on: HCC 2998
LOX IMVI = tested on: LOX IMVI
HOP-62 = tested on: HOP-62
OVCAR-3 = tested on: OVCAR-3

Measured: GI50

NC(CCC(=O)O)(CCC(=O)O)CCC(=O)O
> 100 µM: HCT-15
inactive: CCRF-CEM > 100 µM | SN12C > 100 µM | HOP-92 > 100 µM | SK-MEL-5 > 100 µM | OVCAR-8 > 100 µM | ACHN > 100 µM | SK-OV-3 > 100 µM | SF-295 > 100 µM | IGROV-1 > 100 µM | A549 > 100 µM | TK-10 > 100 µM | Malme-3M > 100 µM | SNB-19 > 100 µM | SNB-75 > 100 µM | KM12 > 100 µM | SK-MEL-2 > 100 µM | DU-145 > 100 µM | M14 > 100 µM | SF-539 > 100 µM | HT-29 > 100 µM | NCI/ADR-RES > 100 µM | 786-0 > 100 µM | MOLT-4 > 100 µM | MDA-N > 100 µM | MCF7 > 100 µM | NCI-H23 > 100 µM | NCI-H460 > 100 µM | PC-3 > 100 µM | HCT-116 > 100 µM | UACC-257 > 100 µM | BT-549 > 100 µM | OVCAR-5 > 100 µM | U-251 > 100 µM | SR > 100 µM | RXF 393 > 100 µM | UACC-62 > 100 µM | EKVX > 100 µM | NCI-H226 > 100 µM | T47D > 100 µM | Hs-578T > 100 µM | COLO 205 > 100 µM | UO-31 > 100 µM | MDA-MB-435 > 100 µM | RPMI-8226 > 100 µM | K562 > 100 µM | CAKI-1 > 100 µM | SW-620 > 100 µM | SF-268 > 100 µM | MDA-MB-231 > 100 µM | NCI-H522 11.5 µM

COC(c1ccc(C(C)(C)C)cc1)(c1ccc(C(C)(C)C)cc1)c1cc(C(O)(c2cc(C(OC)(c3ccc(C(C)(C)C)cc3)c3ccc(C(C)(C)C)cc3)c(C)cc2C)c2cc(C(OC)(c3ccc(C(C)(C)C)cc3)c3ccc(C(C)(C)C)cc3)c(C)cc2C)c(C)cc1C
inactive: CCRF-CEM > 100 µM | HOP-92 > 100 µM | SK-MEL-5 > 100 µM | OVCAR-8 > 100 µM | SK-OV-3 > 100 µM | OVCAR-4 > 100 µM | SF-295 > 100 µM | IGROV-1 > 100 µM | A549 > 100 µM | TK-10 > 100 µM | Malme-3M > 100 µM | SNB-75 28.3 µM | SK-MEL-2 > 100 µM | A498 > 100 µM | SK-MEL-28 > 100 µM | DU-145 > 100 µM | M14 > 100 µM | SF-539 > 100 µM | HT-29 > 100 µM | NCI/ADR-RES > 100 µM | HL-60 > 100 µM | MOLT-4 > 100 µM | HCC 2998 > 100 µM | MDA-N > 100 µM | MCF7 > 100 µM | NCI-H23 > 100 µM | NCI-H460 > 100 µM | PC-3 > 100 µM | HCT-116 > 100 µM | UACC-257 > 100 µM | BT-549 > 100 µM | LOX IMVI > 100 µM | HOP-62 > 100 µM | OVCAR-5 > 100 µM | U-251 > 100 µM | SR > 100 µM | RXF 393 > 100 µM | UACC-62 > 100 µM | EKVX > 100 µM | NCI-H226 92.5 µM | T47D > 100 µM | Hs-578T > 100 µM | COLO 205 > 100 µM | UO-31 > 100 µM | OVCAR-3 > 100 µM | MDA-MB-435 > 100 µM | K562 > 100 µM | CAKI-1 > 100 µM | SW-620 > 100 µM | SF-268 > 100 µM | MDA-MB-231 > 100 µM
> 100 µM: HCT-15

C#CCOC(=O)c1ccc(OC(C)=O)cc1
inactive: CCRF-CEM > 100 µM | SN12C > 100 µM | HOP-92 > 100 µM | SK-MEL-5 > 100 µM | OVCAR-8 > 100 µM | ACHN > 100 µM | SK-OV-3 > 100 µM | OVCAR-4 > 100 µM | SF-295 > 100 µM | IGROV-1 > 100 µM | TK-10 > 100 µM | SNB-19 > 100 µM | SNB-75 > 100 µM | KM12 > 100 µM | SK-MEL-2 > 100 µM | A498 > 100 µM | DU-145 > 100 µM | M14 > 100 µM | SF-539 > 100 µM | NCI/ADR-RES > 100 µM | 786-0 > 100 µM | MOLT-4 > 100 µM | HCC 2998 > 100 µM | MDA-N > 100 µM | MCF7 > 100 µM | NCI-H23 > 100 µM | NCI-H460 > 100 µM | PC-3 > 100 µM | HCT-116 > 100 µM | UACC-257 > 100 µM | BT-549 > 100 µM | LOX IMVI > 100 µM | HOP-62 > 100 µM | OVCAR-5 > 100 µM | U-251 > 100 µM | SR > 100 µM | RXF 393 > 100 µM | UACC-62 > 100 µM | EKVX > 100 µM | NCI-H226 > 100 µM | T47D > 100 µM | Hs-578T > 100 µM | COLO 205 > 100 µM | UO-31 > 100 µM | OVCAR-3 > 100 µM | MDA-MB-435 > 100 µM | RPMI-8226 > 100 µM | K562 > 100 µM | CAKI-1 > 100 µM | SW-620 > 100 µM | SF-268 > 100 µM | MDA-MB-231 > 100 µM | NCI-H522 > 100 µM
> 100 µM: HCT-15
